In brackets after ≈: the same amount, converted by molar mass.

This assay has as its system A2780. As to the kind of experiment: Cytotoxicity against human A2780 cells. Format: functional, cell-based.
The compound `CC(C)=CCC/C(C)=C/Cc1cc([C@@H]2CC(=O)c3c(cc(O)c(CC=C(C)C)c3O)O2)cc(O)c1O` [SCHIZOLAENONE B] returned an IC50 of 11 µg/mL (≈ 22.3 µM).

Consider `CC(C)=CCC/C(C)=C/Cc1cc([C@@H]2CC(=O)c3c(cc(O)c(CC=C(C)C)c3O)O2)ccc1O` [SCHIZOLAENONE A], for which the half-inhibitory concentration (IC50) came to 10 µg/mL (≈ 21 µM).

Compound `CC(C)=CCC/C(C)=C/Cc1c(O)cc2c(c1O)C(=O)C[C@@H](c1ccc(O)cc1)O2` [BONANNIONE A] showed a half-maximal inhibitory concentration (IC50) of 12 µg/mL (≈ 29.4 µM).

Take `CC(C)=CCC/C(C)=C/Cc1c(O)cc2c(c1O)C(=O)C[C@@H](c1ccc(O)c(O)c1)O2` [NYMPHAEOL A]: the midpoint of inhibition, the IC50, lay at 5.5 µg/mL (≈ 13 µM).

Compound `CC(C)=CCc1cc([C@@H]2CC(=O)c3c(cc(O)c(CC=C(C)C)c3O)O2)ccc1O` [MACARANGAFLAVANONE B] registered a 50% inhibitory concentration (IC50) of 16 µg/mL (≈ 39.2 µM).

Take `CC(C)=CCC/C(C)=C/Cc1c(O)cc2c(c1O)C(=O)[C@H](O)[C@@H](c1ccc(O)cc1)O2` [BONANNIOL A]: the half-maximal inhibitory concentration (IC50) was 25 µg/mL (≈ 58.9 µM).

The compound `COc1ccc([C@@H]2CC(=O)c3c(cc(O)c(C/C=C(\C)CCC=C(C)C)c3O)O2)cc1` displayed an IC50 of 17 µg/mL (≈ 40.2 µM).

As a reminder, the IC50 is the concentration that gives 50% inhibition. A high value points to lower potency.

(Values after ChEMBL document CHEMBL1158709, “Cytotoxic flavanones of Schizolaena hystrix from the Madagascar rainforest” (J Nat Prod, 2005).)
